Assay results reported in patent US5726203A, “Qinghaosu derivatives against AIDS” (priority 1993, dated 1998).

Assays:
HIV-1 (MT4) = assay: Anti-HIV effect on MT4 cells, virus antigen expression (immunoenzymatic method); type: cell-based
Source text: The virus used was HIV-1 which had been obtained from Professor Montagnier of the Pastear Institute, France. The virus titer used in the experiment was 1×10^4 TCID50 /ml. The cell culture used was CEM cell line which was cultivated in the HIV laboratory of Institute of Virology, Chinese Academy of Preventive Medicine, for cultivation storage of HIV-1.
The compounds used in the experiment were qinghaosu, dihydroqinghaosu, Artesunate, Artemether, dihydroqinghaosu-methylcarbamate, dihydroqinghaosu-benzenecarbamate, qinghaosu-morpholinyl propylether maleate, dihydroqinghaosu-diethyl amino ethyl ether maleate, deoxyqinghaosu-morpholinyl ethyl ether maleate, qinghaosu-morpholinyl propanol ether maleate, qinghaosu-3,5-dimonpholinyl methyl-4-hydroxy benzyl ether maleate, dihydroqinghaosu-m-chlorobenzoate, qinghaosu-3-pyrrolidinylmethyl-4-hydroxybenzoate oxalate, and qinghaosu-3-morpholinylmethyl-4-hydroxybenzoate oxalate. […] The concentration of the original solution of these compounds were all 1 mg/ml.
(§1) a. Freshly cultured MT4 cells (5×10^5 /ml) were co-cultivated with the virus fluid (10^3 TCID50 /ml) in a CO2 incubator at 37° C. for 1-1.5 hours. RPMI 1640 complete medium (containing 10% Bovine serum and antibiotics, such as penicillin) was used to wash the unbound virus.
(§2) Complete medium was added to correct the concentration for use.
(§3) The experiment was carried out on the plates with 96 wells. 0.1 ml of the above-mentioned infected MT4 cell suspension was added into each well, and then 0.1 ml of various concentrations of the drugs were added. […] Each concentration of the drugs was added into two wells. Both the experiment group and the control group were incubated in a CO2 incubator at 37° C. The drug solution were changed 3 days later, and the following observations were carried out 6 days afterwards.
b. Observation on the growth situation of cells. Trypan blue dye was used to observe the quantity of live cells in each group.
(§4) c. Determination of the virus antigen expression. The immunoenzymatic method was used to examine the virus antigen expression. Cells from each group were separately smeared in two wells. They were fixed with cold acetone, HIV-positive serum was dropped into the wells. After incubated in a CO2 incubator at 37° C. for 30 minutes, they were washed with PBS for 3 times. Enzyme-labelled SPA was dropped into the wells. They were incubated in the same condition for 30 minutes, washed with PBS for 3 times, and then put in substrate solution to stain for 2-3 minutes, washed with distilled water, and observed under microscope. Normal cells were colorless, whereas virus-carrying cells appeared browrish red.
The mark used were as follows:
The experiment was repeated two to three times.
The concentration of the original fluid of these compounds were all 1 mg/ml. 0.1 ml was taken and added into 0.1 ml of virus-carrying cell suspension, thus the reaction concentrations were as follows: in the original fluid group, 0.1 mg/0.2 ml, i.e., 0.5 mg/ml; in 1×10^-1group, 0.05 mg/ml; in 1×10^-2 group, 0.005 mg/ml; in 1×10^-3 group, 0.0005 mg/ml, i.e., 0.5 μg/ml; and on the analogy of this.

[1] = Subacute toxicologic study; conditions: in vivo, read-out: basic safe dosage
Plasmodium Berghei = assay: Peters' four day inhibition test in mice, erythrocytic stage of Plasmodium Berghei; type: in vivo; conditions: once a day D0-D3, Hybrid Kunming strain mice, read-out: SD50 (the source's name)
Source text: Effect on Erythrocytic Stage of Plasmodium Berghei 1. "Four day inhibition test" in mice To determinate the SD50 with Peters' "four day inhibition test". Hybrid Kunming strain mice, body weight 18-22 g, were inculated with 1×10^7 parasites infected RBC intraperitoneally on D0. Dihydroqinghaosu-methylcarbamate, dihydroqinghaosu-butylcarbamate, dihydroqinghaosu-benzenecarbamate and dihydroqinghaosu-4-nitrobenzenecarbamate with different concentration were given once a day from D0 -D3. Blood smears from mouse's tail were made on D4, stained with Gimsa reagent and examined under microscope to count the infected and uninfected erthrocyte to get infected rate. Inhibitory rates of different dosages were calculated by following formula. The SD50 was calculated by the simplified probit analysis: [formula]

U937 HIV-1 [2] = assay: Inhibition effect on HIV-1 infected U937 cells, activity of reverse transcriptase; type: cell-based; conditions: 50 μg/ml, control 24502
Source text: (§5) Furthermore, a part of the compounds according to the present invention were used to test their inhibition effect on U937 cell line (macrophage cell line)according to the methods in Experiment 1.

U937 HIV-1 [3] = assay: Inhibition effect on HIV-1 infected U937 cells (macrophage cell line), HIV antigen test (IE); type: cell-based; conditions: U937 HIV-1; 50 μg/ml
Description: as §1, §2, §3, §4, §5

Acute toxicity in mice = type: in vivo; conditions: for LD50: mouse, in vivo, po
Description: Animals: Hybrid swiss strain mice (provided by Animal House of Institute of Chinese Mateia Media, China Academy of Traditional Chinese Medicine), 20-22 grams, less than 6 weeks age of both sexes fed in laboretory for 3-5 days observation and a random taking food and drinking.
Drugs: Dihydroqinghaosu-methylcarbamate and dihydroqinghaosu-benzenecarbamate.
Above two drugs in powder form were dissolved into peanut oil. The biggest dose were 2000 mg/kg and 2161 mg/kg respectively. The distances between two dose groups were 0.7 and 0.68 respectively, with 5 dose groups each drugs.
Method: The mice were given single dose of above compound respectively intragastrically, the acute intoxication manifestrations were observed the LD value (LD5, LD50 and LD95) and B value were determined by three days mortality.

[4] = F + M, single dose intragastrically
[5] = F, single dose intragastrically
[6] = M, single dose intragastrically

In the case of `CNC(=O)OC1OC2OC3(C)CCC4C(C)CCC(C1C)C24OO3` (stereo not shown) [Dihydroqinghaosu-methylcarbamate, Dihydroqinghaosu-Methylcarbamate], the “effect on HIV-1 (MT4), virus antigen expression” value (“effect on HIV-1 (MT4)” below) (HIV-1 (MT4); 1 × 10^-1 (50 μg/ml)) is reported as “- (positive cells were not seen in the whole well)”, the “effect on HIV-1 (MT4)” value (HIV-1 (MT4); 1 × 10^-2 (5 μg/ml)) is reported as “- (positive cells were not seen in the whole well)” and the “effect on HIV-1 (MT4)” value (HIV-1 (MT4); 1 × 10^-3 (0.5 μg/ml)) is reported as “- (positive cells were not seen in the whole well)”. For the same molecule, the “effect on HIV-1 (MT4)” value (HIV-1 (MT4); 1 × 10^-4 (0.05 μg/ml)) was “- (positive cells were not seen in the whole well)”, the “inhibition on HIV” value (HIV-1 (MT4); according to Table 1) was “distinct inhibition on HIV” and the NOAEL [1] was 30.2 mg/kg/day. The ED50 (Plasmodium Berghei) was 0.24 mg/kg, the “Activity of reverse transcription (CPM)” value (U937 HIV-1 [2]) was 4463 CPM and the “Antigen test (IE)” value (U937 HIV-1 [3]) was “- (positive cells were not seen in the whole well)”. The “Death distribution of mice, exp./death” value (Acute toxicity in mice; 462 mg/kg, female) was 5/0, the “Death distribution of mice, exp./death” value (Acute toxicity in mice; 462 mg/kg, female + male) was 10/1 and the “Death distribution of mice, exp./death” value (Acute toxicity in mice; 462 mg/kg, male) was 5/1. The “Death distribution of mice, exp./death” value (Acute toxicity in mice; 680 mg/kg, female) was 5/2, the “Death distribution of mice, exp./death” value (Acute toxicity in mice; 680 mg/kg, female + male) was 10/2 and the “Death distribution of mice, exp./death” value (Acute toxicity in mice; 680 mg/kg, male) was 5/1. The “Death distribution of mice, exp./death” value (Acute toxicity in mice; 1000 mg/kg, female) was 5/2, the “Death distribution of mice, exp./death” value (Acute toxicity in mice; 1000 mg/kg, female + male) was 10/4 and the “Death distribution of mice, exp./death” value (Acute toxicity in mice; 1000 mg/kg, male) was 5/2. For the same molecule, the “Death distribution of mice, exp./death” value (Acute toxicity in mice; 1470 mg/kg, female) was 5/2, the “Death distribution of mice, exp./death” value (Acute toxicity in mice; 1470 mg/kg, female + male) was 10/5 and the “Death distribution of mice, exp./death” value (Acute toxicity in mice; 1470 mg/kg, male) was 5/3. For the same molecule, the “Death distribution of mice, exp./death” value (Acute toxicity in mice; 2161 mg/kg, female) was 5/5, the “Death distribution of mice, exp./death” value (Acute toxicity in mice; 2161 mg/kg, female + male) was 10/10 and the “Death distribution of mice, exp./death” value (Acute toxicity in mice; 2161 mg/kg, male) was 5/5. For the same molecule, the LD5 (Acute toxicity in mice; [4]) was 435.75 mg/kg, the LD95 (Acute toxicity in mice; [4]) was 2883.02 mg/kg and the “slope (B)” value (Acute toxicity in mice; [4]) was 4.01. The LD5 (Acute toxicity in mice; [5]) was 543.17 mg/kg, the LD95 (Acute toxicity in mice; [5]) was 2711.67 mg/kg and the “slope (B)” value (Acute toxicity in mice; [5]) was 4.711. The LD5 (Acute toxicity in mice; [6]) was 360.92 mg/kg, the LD95 (Acute toxicity in mice; [6]) was 2932.84 mg/kg and the “slope (B)” value (Acute toxicity in mice; [6]) was 3.620. The LD50 (Acute toxicity in mice; [4]) was 1120 mg/kg, the LD50 (Acute toxicity in mice; [5]) was 1210 mg/kg and the LD50 (Acute toxicity in mice; P.O. (per os)) was 1120 mg/kg. For the same molecule, the LD50 (Acute toxicity in mice; single dose intragastrically) was 1030 mg/kg.
